Data reported in patent US20110130397A1, “PYRROLINONE COMPOUNDS AS INHIBITORS OF BACTERIAL PEPTIDYL TRNA HYDROLASE AND USES THEREOF” (priority 2006, published 2011).
Values joined by “and” are separate entries in the source; they are usually repeats but may differ in a detail not shown here. Equal values may be shown once.

Structure (SMILES)	melting point
CC(=O)C1=C(O)C(=O)N(c2nc3c(Cl)cccc3s2)C1c1ccc(F)cc1 (stereo not shown) [Compound 426]	231 to 232 °C
CC(=O)C1=C(O)C(=O)N(c2nc3ccc(Cl)cc3s2)C1c1ccccc1F (stereo not shown) [Compound 429]	255 to 256 °C
COC1=C(C(C)=O)C(c2ccccc2F)N(c2nc3ccc(Cl)cc3s2)C1=O (stereo not shown) [Compound 430]	235 to 236 °C
CCOC1=C(C(=O)c2ccc(C)o2)C(c2ccc(O)cc2)N(c2nc3ccccc3n2C)C1=O (stereo not shown) [Compound 431]	254 to 255 °C
Cc1ccc(C(=O)C2=C(O)C(=O)N(C3CCCCC3)C2c2ccccc2F)o1 (stereo not shown) [Compound 432]	195 to 196 °C
Cc1ccc(C(=O)C2=C(O)C(=O)N(C3CCC(O)CC3)C2c2ccccc2F)o1 (stereo not shown) [Compound 433]	204 to 206 °C
Cc1ccc(C(=O)C2=C(O)C(=O)N(C(CO)CO)C2c2ccccc2F)o1 (stereo not shown) [Compound 434]	74 to 75 °C
O=C(C1=C(O)C(=O)N(c2nc3ccc(Cl)cc3s2)C1c1ccccc1F)c1nccs1 (stereo not shown) [Compound 435]	309 to 310 °C
O=C(C1=C(O)C(=O)N(c2nc3ccc(Cl)cc3s2)C1c1ccc(F)cc1)c1nccs1 (stereo not shown) [Compound 436]	310 to 311 °C
O=C(C1=C(O)C(=O)N(c2nc3ccc(F)cc3s2)C1c1ccccc1F)c1nccs1 (stereo not shown) [Compound 437]	298 to 299 °C
O=C(C1=C(O)C(=O)N(c2nc3ccc(F)cc3s2)C1c1ccc(F)cc1)c1nccs1 (stereo not shown) [Compound 438]	320 to 321 °C
O=C(C1=C(O)C(=O)N(c2nc3c(Cl)cccc3s2)C1c1ccccc1F)c1nccs1 (stereo not shown) [Compound 439]	320 to 321 °C
O=C(C1=C(O)C(=O)N(c2nc3c(Cl)cccc3s2)C1c1ccc(F)cc1)c1nccs1 (stereo not shown) [Compound 440]	303 to 304 °C
COCC(=O)C1=C(O)C(=O)N(c2nc3ccc(Cl)cc3s2)C1c1ccccc1F (stereo not shown) [Compound 441]	253 to 254 °C
COCC(=O)C1=C(O)C(=O)N(c2nc3ccc(Cl)cc3s2)C1c1ccc(F)cc1 (stereo not shown) [Compound 442]	263 to 264 °C
COCC(=O)C1=C(O)C(=O)N(c2nc3ccc(F)cc3s2)C1c1ccccc1F (stereo not shown) [Compound 443]	228 to 229 °C
COCC(=O)C1=C(O)C(=O)N(c2nc3ccc(F)cc3s2)C1c1ccc(F)cc1 (stereo not shown) [Compound 444]	249 to 250 °C

Structure (SMILES)	melting point
COCC(=O)C1=C(O)C(=O)N(c2nc3c(Cl)cccc3s2)C1c1ccccc1F (stereo not shown) [Compound 445]	231 to 233 °C
O=C(COc1ccccc1)C1=C(O)C(=O)N(c2nc3ccc(Cl)cc3s2)C1c1ccccc1F (stereo not shown) [Compound 446]	218 to 219 °C
O=C(COc1ccccc1)C1=C(O)C(=O)N(c2nc3ccc(Cl)cc3s2)C1c1ccc(F)cc1 (stereo not shown) [Compound 447]	203 to 204 °C
O=C(COc1ccccc1)C1=C(O)C(=O)N(c2nc3ccc(F)cc3s2)C1c1ccccc1F (stereo not shown) [Compound 448]	197 to 198 °C
O=C(COc1ccccc1)C1=C(O)C(=O)N(c2nc3c(Cl)cccc3s2)C1c1ccccc1F (stereo not shown) [Compound 449]	131 to 133 °C
O=C(COc1ccccc1)C1=C(O)C(=O)N(c2nc3c(Cl)cccc3s2)C1c1ccc(F)cc1 (stereo not shown) [Compound 450]	204 to 206 °C
O=C(C1=C(O)C(=O)N(c2nc3ccc(Cl)cc3s2)C1c1ccccc1F)C1CC1 (stereo not shown) [Compound 451]	246 to 247 °C
O=C(C1=C(O)C(=O)N(c2nc3ccc(Cl)cc3s2)C1c1ccc(F)cc1)C1CC1 (stereo not shown) [Compound 452]	229 to 230 °C
O=C(C1=C(O)C(=O)N(c2nc3ccc(Cl)cc3s2)C1c1ccc(Cl)cc1)C1CC1 (stereo not shown) [Compound 453]	245 to 246 °C
O=C(C1=C(O)C(=O)N(c2nc3ccc(F)cc3s2)C1c1ccccc1F)C1CC1 (stereo not shown) [Compound 454]	234 to 235 °C
O=C(C1=C(O)C(=O)N(c2nc3ccc(F)cc3s2)C1c1ccc(F)cc1)C1CC1 (stereo not shown) [Compound 455]	221 to 223 °C
O=C(C1=C(O)C(=O)N(c2nc3c(Cl)cccc3s2)C1c1ccccc1F)C1CC1 (stereo not shown) [Compound 456]	253 to 254 °C
O=C(C1=C(O)C(=O)N(c2nc3c(Cl)cccc3s2)C1c1ccc(F)cc1)C1CC1 (stereo not shown) [Compound 457]	218 to 219 °C
O=C(COc1ccccc1Cl)C1=C(O)C(=O)N(c2nc3ccc(Cl)cc3s2)C1c1ccc(F)cc1 (stereo not shown) [Compound 458]	196 to 197 °C
O=C(COc1ccccc1Cl)C1=C(O)C(=O)N(c2nc3ccc(F)cc3s2)C1c1ccc(F)cc1 (stereo not shown) [Compound 459]	234 to 235 °C
O=C(COc1ccccc1Cl)C1=C(O)C(=O)N(c2nc3c(Cl)cccc3s2)C1c1ccc(F)cc1 (stereo not shown) [Compound 460]	143 to 145 °C
Cc1ccc(C(=O)C2=C(O)C(=O)N(c3nc4ccc(Cl)cc4s3)C2c2ccc(F)c(F)c2)o1 (stereo not shown) [Compound 461, 1-(6-Chlorobenzo[d]thiazol-2-yl)-5-(3,4-difluorophenyl)-3-hydroxy-4-(5-methylfuran-2-carbonyl)-1H-pyrrol-2(5H)-one]	235 to 236 °C

Continued, values first:

melting point	Structure (SMILES)
223 to 224 °C	Cc1ccc(C(=O)C2=C(O)C(=O)N(c3nc4ccc(F)cc4s3)C2c2ccc(F)c(F)c2)o1 (stereo not shown) [Compound 462]
269 to 270 °C	Cc1ccc(C(=O)C2=C(O)C(=O)N(c3nc4c(Cl)cccc4s3)C2c2ccc(F)c(F)c2)o1 (stereo not shown) [Compound 463]
244 to 245 °C	Cc1ccc(C(=O)C2=C(O)C(=O)N(c3nc4ccc(Cl)cc4s3)C2c2ccc(-c3ccccc3)cc2)o1 (stereo not shown) [Compound 464]
228 to 231 °C	Cc1ccc(C(=O)C2=C(O)C(=O)N(c3nc4ccc(F)cc4s3)C2c2ccc(-c3ccccc3)cc2)o1 (stereo not shown) [Compound 465]
222 to 223 °C	Cc1ccc(C(=O)C2=C(O)C(=O)N(c3nc4c(Cl)cccc4s3)C2c2ccc(-c3ccccc3)cc2)o1 (stereo not shown) [Compound 466]
238 to 239 °C	Cc1ccc(C(=O)C2=C(O)C(=O)N(c3nc4ccc(Cl)cc4s3)C2c2ccc(Oc3ccccc3)cc2)o1 (stereo not shown) [Compound 467]
172 to 173 °C	Cc1ccc(C(=O)C2=C(O)C(=O)N(c3nc4ccc(F)cc4s3)C2c2ccc(Oc3ccccc3)cc2)o1 (stereo not shown) [Compound 468]
208 to 209 °C	Cc1ccc(C(=O)C2=C(O)C(=O)N(c3nc4c(Cl)cccc4s3)C2c2ccc(Oc3ccccc3)cc2)o1 (stereo not shown) [Compound 469]
196 to 197 °C	Cc1ccc(C(=O)C2=C(O)C(=O)N(c3nc4ccc(Cl)cc4s3)C2c2ccc(OCc3ccccc3)cc2)o1 (stereo not shown) [Compound 470]
191 to 193 °C	Cc1ccc(C(=O)C2=C(O)C(=O)N(c3nc4ccc(F)cc4s3)C2c2ccc(OCc3ccccc3)cc2)o1 (stereo not shown) [Compound 471]
240 to 241 °C	Cc1ccc(C(=O)C2=C(O)C(=O)N(c3nc4c(Cl)cccc4s3)C2c2ccc(OCc3ccccc3)cc2)o1 (stereo not shown) [Compound 472]
226 to 227 °C	Cc1ccc(C(=O)C2=C(O)C(=O)N(c3nc4ccc(Cl)cc4s3)C2c2cccc(Oc3ccccc3)c2)o1 (stereo not shown) [Compound 473]
215 to 216 °C and 213 to 214 °C	Cc1ccc(C(=O)C2=C(O)C(=O)N(c3nc4ccc(Cl)cc4s3)C2c2cccc(OCc3ccccc3)c2)o1 (stereo not shown) [Compound 475]
187 to 188 °C	Cc1ccc(C(=O)C2=C(O)C(=O)N(c3nc4ccc(F)cc4s3)C2c2cccc(OCc3ccccc3)c2)o1 (stereo not shown) [Compound 476]
209 to 210 °C	Cc1ccc(C(=O)C2=C(O)C(=O)N(c3nc4ccc(Cl)cc4s3)C2c2ccc(OCCO)cc2)o1 (stereo not shown) [Compound 477]
134 to 135 °C	Cc1ccc(C(=O)C2=C(O)C(=O)N(c3nc4ccc(F)cc4s3)C2c2ccc(OCCO)cc2)o1 (stereo not shown) [Compound 478]
211 to 213 °C	Cc1ccc(C(=O)C2=C(O)C(=O)N(c3nc4ccc(Cl)cc4s3)C2c2ccc(OCCCN(C)C)cc2)o1 (stereo not shown) [Compound 479]

melting point	Structure (SMILES)
209 to 211 °C	Cc1ccc(C(=O)C2=C(O)C(=O)N(c3nc4ccc(F)cc4s3)C2c2ccc(OCCCN(C)C)cc2)o1 (stereo not shown) [Compound 480]
186 to 188 °C	COc1ccccc1CC(=O)C1=C(O)C(=O)N(c2nc3ccc(Cl)cc3s2)C1c1ccccc1F (stereo not shown) [Compound 481]
207 to 208 °C	COc1ccccc1CC(=O)C1=C(O)C(=O)N(c2nc3ccc(F)cc3s2)C1c1ccccc1F (stereo not shown) [Compound 482]
224 to 226 °C	COc1ccccc1CC(=O)C1=C(O)C(=O)N(c2nc3c(Cl)cccc3s2)C1c1ccccc1F (stereo not shown) [Compound 483]
253 to 255 °C	COc1ccccc1CC(=O)C1=C(O)C(=O)N(c2nc3ccc(Cl)cc3s2)C1c1ccc(F)cc1 (stereo not shown) [Compound 484]
223 to 224 °C	COc1ccccc1CC(=O)C1=C(O)C(=O)N(c2nc3ccc(F)cc3s2)C1c1ccc(F)cc1 (stereo not shown) [Compound 485]
243 to 245 °C	COc1ccccc1CC(=O)C1=C(O)C(=O)N(c2nc3c(Cl)cccc3s2)C1c1ccc(F)cc1 (stereo not shown) [Compound 486]
247 to 248 °C	COc1ccccc1CC(=O)C1=C(O)C(=O)N(c2nc3ccc(Cl)cc3s2)C1c1ccc(Cl)cc1 (stereo not shown) [Compound 487]
249 to 250 °C	COc1ccccc1CC(=O)C1=C(O)C(=O)N(c2nc3ccc(F)cc3s2)C1c1ccc(Cl)cc1 (stereo not shown) [Compound 488]
176 to 178 °C	COc1ccccc1CC(=O)C1=C(O)C(=O)N(c2nc3c(Cl)cccc3s2)C1c1ccc(Cl)cc1 (stereo not shown) [Compound 489]
146 to 148 °C	Cc1ccc(C(=O)C2=C(O)C(=O)N(CCCN(CCCNC(=O)OC(C)(C)C)C(=O)OC(C)(C)C)C2c2ccc(F)cc2)o1 (stereo not shown) [Compound 490]
126 to 128 °C	Cc1ccc(C(=O)C2=C(O)C(=O)N(CCCNCCCN)C2c2ccc(F)cc2)o1 (stereo not shown) [Compound 491]
206 to 207 °C	CCOC(=O)CCC(=O)C1=C(O)C(=O)N(c2nc3ccc(Cl)cc3s2)C1c1ccccc1F (stereo not shown) [Compound 493]
224 to 225 °C	CCOC(=O)CCC(=O)C1=C(O)C(=O)N(c2nc3ccc(Cl)cc3s2)C1c1ccc(F)cc1 (stereo not shown) [Compound 494]
244 to 245 °C	CCOC(=O)CCC(=O)C1=C(O)C(=O)N(c2nc3ccc(Cl)cc3s2)C1c1ccc(Cl)cc1 (stereo not shown) [Compound 495]
184 to 185 °C	CCOC(=O)CCC(=O)C1=C(O)C(=O)N(c2nc3ccc(F)cc3s2)C1c1ccccc1F (stereo not shown) [Compound 496]
